According to ChEMBL document CHEMBL1201861, “Genomics of Drug Sensitity in Cancer screening data, Wellcome Trust Sanger Institute”:

Experiments:
Assay in all cases: cells
Assay type in all cases: functional, cell-based
Conditions in all cases: Homo sapiens
IST-MEL1 = tested on: IST-MEL1;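 further: growth inhibition of the cell line, read out with a cell viability assay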
Description: SANGER: Inhibition of human IST-MEL1 cell growth in a cell viability assay.

COLO-800 = tested on: COLO-800;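 further: growth inhibition of COLO-800 cells, read out with a cell viability assay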
Description: SANGER: Inhibition of human COLO-800 cell growth in a cell viability assay.

A4-Fuk = tested on: A4-Fuk;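 further: growth inhibition of A4-Fuk cells, read out by a cell viability assay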
Description: SANGER: Inhibition of human A4-Fuk cell growth in a cell viability assay.

KARPAS-299 = tested on: KARPAS-299
Description: SANGER: Inhibition of human KARPAS-299 cell growth in a cell viability assay.

SK-UT-1 = tested on: SK-UT-1;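 further: growth inhibition of SK-UT-1 cells, measured by a cell viability assay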
Description: SANGER: Inhibition of human SK-UT-1 cell growth in a cell viability assay.

MPP-89 = tested on: MPP-89;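 further: growth inhibition of human MPP-89 cells, read out with a cell viability assay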
Description: SANGER: Inhibition of human MPP-89 cell growth in a cell viability assay.

VA-ES-BJ = tested on: VA-ES-BJ;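 further: growth inhibition of the VA-ES-BJ cell line, read out by a cell viability assay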
Description: SANGER: Inhibition of human VA-ES-BJ cell growth in a cell viability assay.

LB771-HNC = tested on: LB771-HNC;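 further: growth inhibition of LB771-HNC human cells, read out with a cell viability assay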
Description: SANGER: Inhibition of human LB771-HNC cell growth in a cell viability assay.

SW684 = tested on: SW684;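 further: growth inhibition of human SW684 cells, measured by a cell viability assay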
Description: SANGER: Inhibition of human SW684 cell growth in a cell viability assay.

MFH-ino = tested on: MFH-ino;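 further: growth inhibition of human MFH-ino cells, read out by a cell viability assay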
Description: SANGER: Inhibition of human MFH-ino cell growth in a cell viability assay.

TE-11 = tested on: TE-11;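 further: growth inhibition of human TE-11 cells, read out by a cell viability assay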
Description: SANGER: Inhibition of human TE-11 cell growth in a cell viability assay.

COLO-829 = tested on: COLO-829
Description: SANGER: Inhibition of human COLO-829 cell growth in a cell viability assay.

NB6 = tested on: NB6;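 further: growth inhibition of NB6 cells, read out by a cell viability assay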
Description: SANGER: Inhibition of human NB6 cell growth in a cell viability assay.

CTB-1 = tested on: CTB-1
Description: SANGER: Inhibition of human CTB-1 cell growth in a cell viability assay.

PSN1 = tested on: PSN1;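 further: suppression of growth of human PSN1 cells, read out by a cell viability assay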
Description: SANGER: Inhibition of human PSN1 cell growth in a cell viability assay.

NOMO-1 = tested on: NOMO-1;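 further: growth inhibition of human NOMO-1 cells measured by a cell viability assay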
Description: SANGER: Inhibition of human NOMO-1 cell growth in a cell viability assay.

KGN = tested on: KGN;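 further: growth inhibition of KGN cells, read out with a cell viability assay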
Description: SANGER: Inhibition of human KGN cell growth in a cell viability assay.

SW872 = tested on: SW872;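 further: growth inhibition of SW872 cells, read out by a viability assay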
Description: SANGER: Inhibition of human SW872 cell growth in a cell viability assay.

A3-KAW = tested on: A3-KAW;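 further: growth inhibition of human A3-KAW cells, read out with a cell viability assay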
Description: SANGER: Inhibition of human A3-KAW cell growth in a cell viability assay.

DJM-1 = tested on: DJM-1;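 further: growth inhibition of human DJM-1 cells, read out by a cell viability assay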
Description: SANGER: Inhibition of human DJM-1 cell growth in a cell viability assay.

no-10 = tested on: no-10;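 further: growth inhibition of no-10 cells, read out with a cell viability assay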
Description: SANGER: Inhibition of human no-10 cell growth in a cell viability assay.

CW-2 = tested on: CW-2;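 further: growth inhibition of CW-2 cells, read out by a cell viability assay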
Description: SANGER: Inhibition of human CW-2 cell growth in a cell viability assay.

NCI-H446 = tested on: NCI-H446;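 further: growth inhibition of NCI-H446 cells determined by a cell viability assay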
Description: SANGER: Inhibition of human NCI-H446 cell growth in a cell viability assay.

COLO-824 = tested on: COLO-824
Description: SANGER: Inhibition of human COLO-824 cell growth in a cell viability assay.

TE-9 = tested on: TE-9;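 further: cell growth inhibition, measured with a cell viability readout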
Description: SANGER: Inhibition of human TE-9 cell growth in a cell viability assay.

ETK-1 = tested on: ETK-1;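 further: growth inhibition of human ETK-1 cells, read out with a cell viability assay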
Description: SANGER: Inhibition of human ETK-1 cell growth in a cell viability assay.

LOX IMVI = tested on: LOX IMVI
Description: SANGER: Inhibition of human LOXIMVI cell growth in a cell viability assay.

ACN = tested on: ACN;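 further: growth inhibition of the human ACN cell line, read out via cell viability testing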
Description: SANGER: Inhibition of human ACN cell growth in a cell viability assay.

TE-8 = tested on: TE-8;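 further: growth inhibition of TE-8 cells, measured with a cell viability readout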
Description: SANGER: Inhibition of human TE-8 cell growth in a cell viability assay.

ES5 = tested on: ES5;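 further: growth inhibition of human ES5 cells, read out by a cell viability assay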
Description: SANGER: Inhibition of human ES5 cell growth in a cell viability assay.

DU-4475 = tested on: DU-4475
Description: SANGER: Inhibition of human DU-4475 cell growth in a cell viability assay.

HT = tested on: HT
Description: SANGER: Inhibition of human HT cell growth in a cell viability assay.

NCI-H82 = tested on: NCI-H82;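 further: growth inhibition of NCI-H82 cells, measured with a cell viability readout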
Description: SANGER: Inhibition of human NCI-H82 cell growth in a cell viability assay.

ES7 = tested on: ES7;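 further: growth inhibition of cultured human ES7 cells, read out as cell viability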
Description: SANGER: Inhibition of human ES7 cell growth in a cell viability assay.

LB2241-RCC = tested on: LB2241-RCC;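 further: cell viability assay measuring how strongly the cultured human renal carcinoma line is prevented from growing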
Description: SANGER: Inhibition of human LB2241-RCC cell growth in a cell viability assay.

OS-RC-2 = tested on: OS-RC-2;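 further: growth inhibition of human OS-RC-2 cells, measured by a cell viability assay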
Description: SANGER: Inhibition of human OS-RC-2 cell growth in a cell viability assay.

RXF 393 = tested on: RXF 393;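 further: growth inhibition of human RXF 393 cells, read out with a cell viability assay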
Description: SANGER: Inhibition of human RXF393 cell growth in a cell viability assay.

NCI-H226 = tested on: NCI-H226;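 further: cell viability read-out used to gauge growth inhibition of the cells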
Description: SANGER: Inhibition of human NCI-H226 cell growth in a cell viability assay.

LC-2-ad = tested on: LC-2-ad;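 further: growth inhibition of human LC-2-ad cells, read out with a cell viability assay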
Description: SANGER: Inhibition of human LC-2-ad cell growth in a cell viability assay.

TE-1 = tested on: TE-1;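 further: growth inhibition of the human TE-1 cell line, read out with a cell viability assay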
Description: SANGER: Inhibition of human TE-1 cell growth in a cell viability assay.

TE-5 = tested on: TE-5;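 further: inhibition of cell growth, read out by a cell viability assay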
Description: SANGER: Inhibition of human TE-5 cell growth in a cell viability assay.

K562 = tested on: K562
Description: SANGER: Inhibition of human K-562 cell growth in a cell viability assay.

BE-13 = tested on: BE-13;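 further: growth inhibition of human BE-13 cells, measured with a cell viability assay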
Description: SANGER: Inhibition of human BE-13 cell growth in a cell viability assay.

MFM-223 = tested on: MFM-223
Description: SANGER: Inhibition of human MFM-223 cell growth in a cell viability assay.

NOS-1 = tested on: NOS-1;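 further: growth inhibition of the human NOS-1 cell line, read out with a cell viability assay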
Description: SANGER: Inhibition of human NOS-1 cell growth in a cell viability assay.

NCI-H1092 = tested on: NCI-H1092;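 further: cell growth inhibition measured with a cell viability assay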
Description: SANGER: Inhibition of human NCI-H1092 cell growth in a cell viability assay.

D-502MG = tested on: D-502MG
Description: SANGER: Inhibition of human D-502MG cell growth in a cell viability assay.

SCH = tested on: SCH;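 further: growth inhibition of human SCH cells, read out in a cell viability assay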
Description: SANGER: Inhibition of human SCH cell growth in a cell viability assay.

SW 954 = tested on: SW 954;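 further: growth inhibition of SW954 human cancer cells, read out as cell viability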
Description: SANGER: Inhibition of human SW954 cell growth in a cell viability assay.

LXF-289 cell line = tested on: LXF-289 cell line
Description: SANGER: Inhibition of human LXF-289 cell growth in a cell viability assay.

KG-1 = tested on: KG-1;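 further: growth inhibition of KG-1 cells, read out by a cell viability assay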
Description: SANGER: Inhibition of human KG-1 cell growth in a cell viability assay.

NKM-1 = tested on: NKM-1;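 further: growth inhibition of NKM-1 cells, read out with a cell viability assay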
Description: SANGER: Inhibition of human NKM-1 cell growth in a cell viability assay.

HAL-01 = tested on: HAL-01;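 further: growth inhibition of human HAL-01 cells, read out with a cell viability assay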
Description: SANGER: Inhibition of human HAL-01 cell growth in a cell viability assay.

TGBC1TKB = tested on: TGBC1TKB;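 further: growth inhibition of TGBC1TKB cells, read out by a cell viability assay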
Description: SANGER: Inhibition of human TGBC1TKB cell growth in a cell viability assay.

BB49-HNC = tested on: BB49-HNC;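 further: cell viability assay read-out, reported as inhibition of BB49-HNC cell growth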
Description: SANGER: Inhibition of human BB49-HNC cell growth in a cell viability assay.

SK-MEL-2 = tested on: SK-MEL-2;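 further: growth inhibition of human SK-MEL-2 cells measured with a cell viability assay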
Description: SANGER: Inhibition of human SK-MEL-2 cell growth in a cell viability assay.

LS-513 = tested on: LS-513
Description: SANGER: Inhibition of human LS-513 cell growth in a cell viability assay.

NCI-H2126 = tested on: NCI-H2126;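 further: growth inhibition of the cancer cell line, determined with a cell viability readout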
Description: SANGER: Inhibition of human NCI-H2126 cell growth in a cell viability assay.

LU-139 = tested on: LU-139
Description: SANGER: Inhibition of human LU-139 cell growth in a cell viability assay.

BV-173 = tested on: BV-173
Description: SANGER: Inhibition of human BV-173 cell growth in a cell viability assay.

NCI-H69 = tested on: NCI-H69;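 further: growth inhibition of the cell line, read out with a cell viability assay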
Description: SANGER: Inhibition of human NCI-H69 cell growth in a cell viability assay.

HCC2218 = tested on: HCC2218;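 further: cell viability assay read-out, with IC50 given as the concentration that inhibits growth of the cell line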
Description: SANGER: Inhibition of human HCC2218 cell growth in a cell viability assay.

CTV-1 = tested on: CTV-1
Description: SANGER: Inhibition of human CTV-1 cell growth in a cell viability assay.

Measured: IC50

O=c1cc(N2CCOCC2)oc2c(-c3cccc4c3sc3ccccc34)cccc12
1120 nM: CTB-1
not listed: LU-139 | BV-173 | NCI-H69 | HCC2218 | CTV-1
> 2000 nM: all other assays above

CCCS(=O)(=O)Nc1ccc(F)c(C(=O)c2c[nH]c3ncc(Cl)cc23)c1F [PLX-4720]
390 nM: COLO-829
6150 nM: ES5
796 nM: BV-173
7370 nM: LB2241-RCC
3400 nM: CTB-1
385 nM: ACN
74.6 nM: DU-4475
878 nM: HCC2218
4740 nM: KG-1
> 10000 nM: all other assays above
